Reference: patent publication US20120115877A1, “Facially Amphiphilic Compounds, Compositions, And Uses Thereof In Treating Cancer” (POLYMEDIX, INC., priority 2010, published 2012)

Key:
Type in all cases: cell-based, human
IGROV1 = assay: NCI-60 screen, Ovarian Cancer; conditions: 10 μM
Procedure: (§1) Several compounds were tested at single concentrations (10 μM) against 59 different human tumor cell lines, representing leukemia, melanoma and cancers of the lung, colon, brain, ovary, breast, prostate, and kidney (see, Table 3). The human tumor cell lines of the cancer screening panel were grown in RPMI 1640 medium containing 5% fetal bovine serum and 2 mM L-glutamine. For a typical screening experiment, cells were inoculated into 96 well microtiter plates in 100 μL at plating densities ranging from 5,000 to 40,000 cells/well depending on the doubling time of individual cell lines. After cell inoculation, the microtiter plates were incubated at 37° C., 5% CO2, 95% air and 100% relative humidity for 24 hours prior to addition of the compounds.
(§2) After 24 hours, two plates of each cell line were fixed in situ with TCA, to represent a measurement of the cell population for each cell line at the time of drug addition (Tz). Compounds were solubilized in dimethyl sulfoxide at 400-fold the desired final maximum test concentration and stored frozen prior to use. At the time of drug addition, an aliquot of frozen concentrate was thawed and diluted to twice the desired final maximum test concentration with complete medium containing 50 μg/ml gentamicin. Additional four, 10-fold or ½ log serial dilutions were made to provide a total of five compound concentrations plus control. Aliquots of 100 μl of these different drug dilutions were added to the appropriate microtiter wells already containing 100 μl of medium, resulting in the required final compound concentrations.
(§3) Following drug addition, the plates were incubated for an additional 48 hours at 37° C., 5% CO2, 95% air, and 100% relative humidity. For adherent cells, the assay was terminated by the addition of cold TCA. Cells were fixed in situ by the gentle addition of 50 μl of cold 50% (w/v) TCA (final concentration, 10% TCA) and incubated for 60 minutes at 4° C. The supernatant was discarded, and the plates were washed five times with tap water and air dried. Sulforhodamine B (SRB) solution (100 μl) at 0.4% (w/v) in 1% acetic acid was added to each well, and plates were incubated for 10 minutes at room temperature. After staining, unbound dye was removed by washing five times with 1% acetic acid and the plates were air dried. Bound stain was subsequently solubilized with 10 mM trizma base, and the absorbance was read on an automated plate reader at a wavelength of 515 nm. For suspension cells, the methodology was the same except that the assay was terminated by fixing settled cells at the bottom of the wells by gently adding 50 μl of 80% TCA (final concentration, 16% TCA). Using the seven absorbance measurements (time zero, (Tz), control growth, (C), and test growth in the presence of drug at the five concentration levels (Ti)), the percentage growth was calculated at each of the compound concentrations levels. Percentage growth inhibition was calculated as:
(§4) [(Ti−Tz)/(C−Tz)]×100 for concentrations for which Ti>/=Tz
(§5) [(Ti−Tz)/Tz]×100 for concentrations for which Ti<Tz.
(§6) Three dose response parameters were calculated for each compound. Growth inhibition of 50% (GI50) was calculated from [(Ti−Tz)/(C−Tz)]×100=50, which is the compound concentration resulting in a 50% reduction in the net protein increase (as measured by SRB staining) in control cells during the compound incubation. The compound concentration resulting in total growth inhibition (TGI) was calculated from Ti=Tz. The LC50 (concentration of compound resulting in a 50% reduction in the measured protein at the end of the compound treatment as compared to that at the beginning) indicating a net loss of cells following treatment was calculated from [(Ti−Tz)/Tz]×100=−50. Values were calculated for each of these three parameters if the level of activity was reached; however, if the effect was not reached or was exceeded, the value for that parameter was expressed as greater or less than the maximum or minimum concentration tested.

OVCAR-8 = assay: NCI-60 screen, Ovarian Cancer; conditions: 10 μM
Procedure: as §1, §2, §3, §4, §5, §6

OVCAR-4 = assay: NCI-60 screen, Ovarian Cancer; conditions: 10 μM
Procedure: as §1, §2, §3, §4, §5, §6

SK-OV-3 = assay: NCI-60 screen, Ovarian Cancer; conditions: 10 μM
Procedure: as §1, §2, §3, §4, §5, §6

OVCAR-5 = assay: NCI-60 screen, Ovarian Cancer; conditions: 10 μM
Procedure: as §1, §2, §3, §4, §5, §6

OVCAR-3 = assay: NCI-60 screen, Ovarian Cancer; conditions: 10 μM
Procedure: as §1, §2, §3, §4, §5, §6

NCI/ADR-RES = assay: NCI-60 screen, Ovarian Cancer; conditions: 10 μM
Procedure: as §1, §2, §3, §4, §5, §6

SK-MEL-28 = assay: NCI-60 screen, Melanoma; conditions: 10 μM
Procedure: as §1, §2, §3, §4, §5, §6

UACC-257 = assay: NCI-60 screen, Melanoma; conditions: 10 μM
Procedure: as §1, §2, §3, §4, §5, §6

UACC-62 = assay: NCI-60 screen, Melanoma; conditions: 10 μM
Procedure: as §1, §2, §3, §4, §5, §6

MDA-MB-435 = assay: NCI-60 screen, Melanoma; conditions: 10 μM
Procedure: as §1, §2, §3, §4, §5, §6

SK-MEL-5 = assay: NCI-60 screen, Melanoma; conditions: 10 μM
Procedure: as §1, §2, §3, §4, §5, §6

SK-MEL-2 = assay: NCI-60 screen, Melanoma; conditions: 10 μM
Procedure: as §1, §2, §3, §4, §5, §6

LOX IMVI = assay: NCI-60 screen, Melanoma; conditions: 10 μM
Procedure: as §1, §2, §3, §4, §5, §6

MALME-3M = assay: NCI-60 screen, Melanoma; conditions: 10 μM
Procedure: as §1, §2, §3, §4, §5, §6

SR = assay: NCI-60 screen, Leukemia; conditions: 10 μM
Procedure: as §1, §2, §3, §4, §5, §6

MOLT-4 = assay: NCI-60 screen, Leukemia; conditions: 10 μM
Procedure: as §1, §2, §3, §4, §5, §6

K-562 = assay: NCI-60 screen, Leukemia; conditions: 10 μM
Procedure: as §1, §2, §3, §4, §5, §6

CCRF-CEM = assay: NCI-60 screen, Leukemia; conditions: 10 μM
Procedure: as §1, §2, §3, §4, §5, §6

HL-60(TB) = assay: NCI-60 screen, Leukemia; conditions: 10 μM
Procedure: as §1, §2, §3, §4, §5, §6

TK-10 = assay: NCI-60 screen, Renal Cancer; conditions: 10 μM
Procedure: as §1, §2, §3, §4, §5, §6

A498 = assay: NCI-60 screen, Renal Cancer; conditions: 10 μM
Procedure: as §1, §2, §3, §4, §5, §6

ACHN = assay: NCI-60 screen, Renal Cancer; conditions: 10 μM
Procedure: as §1, §2, §3, §4, §5, §6

SN12C = assay: NCI-60 screen, Renal Cancer; conditions: 10 μM
Procedure: as §1, §2, §3, §4, §5, §6

MDA-MB-31/ATCC = assay: NCI-60 screen, Breast Cancer; conditions: 10 μM, MDA-MB-231/ATCC
Procedure, shortened: (§7)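 Single-dose 10 μM screen on human tumour lines in RPMI 1640 with 5% FBS, 48 h compound exposure at 37 °C after 24 h pre-plating. Read-out is SRB protein stain (515 nm) after TCA fixation. Percentage growth is calculated relative to time-zero and untreated controls; negative values indicate cell kill.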

BT-549 = assay: NCI-60 screen, Breast Cancer; conditions: 10 μM
Procedure, shortened: as §7

Compound	Percent Growth (IGROV1) [%]	Percent Growth (OVCAR-8) [%]	Percent Growth (OVCAR-4) [%]	Percent Growth (SK-OV-3) [%]	Percent Growth (OVCAR-5) [%]	Percent Growth (OVCAR-3) [%]	Percent Growth (NCI/ADR-RES) [%]	Percent Growth (SK-MEL-28) [%]	Percent Growth (UACC-257) [%]	Percent Growth (UACC-62) [%]	Percent Growth (MDA-MB-435) [%]	Percent Growth (SK-MEL-5) [%]	Percent Growth (SK-MEL-2) [%]	Percent Growth (LOX IMVI) [%]	Percent Growth (MALME-3M) [%]	Percent Growth (SR) [%]	Percent Growth (MOLT-4) [%]	Percent Growth (K-562) [%]	Percent Growth (CCRF-CEM) [%]	Percent Growth (HL-60(TB)) [%]	further results
NCCSc1cc(SCCN)c(C(F)(F)F)cc1NC(=O)c1cc(C(=O)Nc2cc(C(F)(F)F)c(SCCN)cc2SCCN)ncn1 [Compound F]	4.7	14.34	−1.474	15.33	59.37	−15.5	54.76	83.94	76.46	51.23	70.62	62.3	46.77	6.66	80.15	51.7	82.85	96.34	99.09	82.57	Percent Growth (TK-10): 21.48%; Percent Growth (A498): 69.6%; Percent Growth (ACHN): 20.02%; Percent Growth (SN12C): 57.46%; Percent Growth (MDA-MB-31/ATCC): 18.87%; Percent Growth (BT-549): 101.8%
NCCCc1cccc(-c2ccc3oc4ccc(-c5cccc(CCCN)c5)cc4c3c2)c1 [Compound G]	42.2	33.74	54.91	94.45	64.48	18.54	83.66	102.1	44.84	72.92	62.07	89.15	72.07	−75.08	105	−19.6	−6.401	2.899	9.165	46.37	Percent Growth (TK-10): 57.59%; Percent Growth (A498): 92.26%; Percent Growth (ACHN): 36.71%; Percent Growth (SN12C): 82.22%; Percent Growth (MDA-MB-31/ATCC): 37.19%; Percent Growth (BT-549): 101.5%
